Assay results taken from US20220050096A1, “ANALYTE-SENSITIVE PROBES AND CONTACT LENS FOR DIAGNOSIS OF OCULAR PATHOLOGIES” (University Of Maryland, Baltimore, priority 2020, published 2022).
Like-named read-outs stand apart in the source and are kept apart here.

Columns and labels:
[1] = cited from earlier work
[2] = cited from earlier work; for Lifetime (ns), Ca bound form / Q, Ca bound form: bound form (in parentheses)
[3] = cited from earlier work; remark: listed apart in the source
[4] = Intensity decay of Prodan in various solvents and contact lenses; assay type: physicochemical
Procedure: (§1) Fluorescence Spectroscopic Measurements. Fluorescence intensities and intensity decays were measured using a Varian™ Eclipse 4 spectrofluorometer and a FluoTime300 instrument from PicoQuant™ (Berlin, Germany) and analyzed with the EasyTau™ software. The excitation source was a 473 nm laser diode with a repetition rate of 40 MHZ and a pulse width less than 100 ps. In other embodiments, the excitation source for SG-PL was at 495 nm from a Solea™ supercontinuum laser (PicoQuant™, Germany) and a 375 nm laser diode (PDL 375, PicoQuant™), a repetition rate of 40 MHz, and a pulse width less than 100 ps. Some intensity and lifetime measurements for SG-PL (as indicated) were performed using Alba V confocal fluorescence lifetime microscopy, FLIM (ISS, Urbana, Ill.), with excitation source of a 473 nm laser diode with a repetition rate of 40 MHz and a pulse width near 250 ps.
(§2) Intensity decays were measured at the emission maximum with the band of 10 to 20 nm, analyzed in terms of the multi-exponential model:
(§3) I(t)=Σαi exp(−t/ti) (equation 1)
(§4) where Σαi=1.0 and Σfi=1.0. The term fi=αi τi is proportional to the fractional contribution of each component to the total intensity decay. The term τi/Σαi τi is the fractional contribution to the steady state emission. Here, we use the amplitude-weighted lifetime given by
The observed spectral properties of 1,8-ANS in lens are consistent with 1,8-ANS properties noticed in a non-polar environment. The probe 6-propionyl-2-dimethylaminonaphthalene (Prodan™), which is also highly sensitive to local polarity, also was used. […] In MyDay™ lenses the emission maximum is at a shorter wavelength than that in acetonitrile.

[5] = cited from earlier work; remark: listed apart in the source
[6] = Intensity decay analysis of 1,8-ANS in various solvents and contact lenses; assay type: physicochemical
Procedure: as §1, §2, §3, §4
In polar solvents like water, the emission of many fluorophores is shifted to longer wavelengths. In addition, the intensities can be much lower and the lifetimes much shorter. […] Table 20, below. […]

[7] = Chloride quenching (Stern-Volmer) of SPQ-C3 in water; assay type: physicochemical
Procedure: Quenching by Chloride. Collisional quenching occurs, for example, when SPQ-C18 (also referred to as OD-MQB (N-Octadecyl-6-methoxyquinolinium bromide)) has a diffusion collision with a chloride ion. The intensities (I) and lifetimes (6) are analyzed using the Stern-Volmer equation,
where F0 and τ0 are the intensities and lifetimes in the absence of chloride, and K is the quenching constant and the inverse of the [Cl^−] needed for 50% quenching. For collisional quenching, the value of F0/F and τ0/τ are typically the same. In solution, in the absence of lenses, the value of K=kq τ0 can be used to calculate the biomolecular quenching constant kq and the quenching efficiency. In the lenses, the [Cl−] may not be the same as in the bulk solution, but kq in the lenses is estimated by assuming the same concentration of chloride around the SPQ moiety in the lenses and in bulk solutions.
This approach for SPQ-C18 in lenses is shown in both intensities and amplitude-weighted lifetimes (FIG. 35A and FIG. 35B). […] This behavior is different from SG-PL where the binding site can be saturated at high Na^+ concentrations. In contrast, quenching of OD-MQB, both intensity and lifetime, continue to decrease as the chloride concentration increased. The steady-state intensities and intensity decays can be used to calculate the bimolecular quenching constant kq. This value can be interpreted by comparison with quenching of a fluorophore in solution without any steric barriers. For this measurement the water-soluble fluorophore 1-propenyl-6-methoxyquinolinium bromide (SPQ-C3) was used. This is the same structure of SPQ-C18 but with a shorter, three carbon propenyl chain. The unquenched lifetime (τ0) of P-MQB was 26 ns, and the Stern-Volmer constant K was 140 M^−1. From these values, we calculated the kq of 5.4×10^9 M^−1 sec^−1 which is a typical value for efficient quenching.
Emission spectra and time-dependent decays were obtained (data not shown). Stern-Volmer plots were obtained in water and in a Stenfilcon A (Aspire™) contact lens by plotting the normalized intensities with respect to the added chloride concentrations.

[8] = cation-bound form (in parentheses)

SMILES: COc1cc2cc(-c3ccc(C(=O)O)cc3C(=O)O)oc2cc1N1CCOCCOCCN(c2cc3oc(-c4ccc(C(=O)O)cc4C(=O)O)cc3cc2OC)CCOCC1 [SBF ?]
- Lifetime (ns), cation-bound form [1, 8]: 0.47 ns
- Q, cation-bound form [1, 8]: 0.087
- Lifetime (ns), free form ([1]; free form): 0.27 ns
- Q, free form ([1]; free form): 0.645
- Kd ([1]; read-out: K (mM), binding constant): 3.8 mM

SMILES: Cc1ccc(N(CC(=O)O)CC(=O)O)c(OCCOc2cc(-c3cc4ccc(C(=O)O)cc4[nH]3)ccc2N(CC(=O)O)CC(=O)O)c1 [Indo-1]
- Lifetime (ns), Ca bound form [2]: 1.66 ns
- Q, Ca bound form [2]: 0.50
- Lifetime (ns), Ca free form [2]: 1.40 ns
- Q, Ca free form [2]: 0.38

SMILES: Cc1ccc(N(CC(=O)O)CC(=O)O)c(OCCOc2cc(-c3c4cc(Cl)c(=O)cc-4oc4cc(O)c(Cl)cc34)ccc2N(CC(=O)O)CC(=O)O)c1 [Pluo-3]
- Lifetime (ns), Ca bound form [2]: 1.28 ns
- Lifetime (ns), Ca free form [2]: 0.04 ns

SMILES: O=S(=O)(O)c1cc(O)c2ccc3c(S(=O)(=O)O)cc(S(=O)(=O)O)c4ccc1c2c34 [HPTS, 8-hydroxypyrene-1,3,6-trisulfonate]
- pKA [3]: 7.3

SMILES: COc1cc(N(CC(=O)O)CC(=O)O)c2nc(COc3cc(C)ccc3N(CC(=O)O)CC(=O)O)ccc2c1 [Quin-2]
- Lifetime (ns), Ca bound form [2]: 11.6 ns
- Q, Ca bound form [2]: 0.14
- Lifetime (ns), Ca free form [2]: 1.35 ns
- Q, Ca free form [2]: 0.03

SMILES: CCC(=O)c1ccc2cc(N(C)C)ccc2c1 [Prodan ™]
- f1 ([4]; in 1-hexanol): 1.0
- α1 ([4]; in 1-hexanol): 1.0
- τ1 ([4]; in 1-hexanol): 3.40 ns
- τf ([4]; in 1-hexanol): 3.40 ns
- τα ([4]; in 1-hexanol): 3.40 ns
- f1 ([4]; in Acetonitrile): 1.0
- α1 ([4]; in Acetonitrile): 1.0
- τ1 ([4]; in Acetonitrile): 3.38 ns
- τf ([4]; in Acetonitrile): 3.38 ns
- τα ([4]; in Acetonitrile): 3.38 ns
- f1 ([4]; in Biofinity contact lens): 1.0
- α1 ([4]; in Biofinity contact lens): 1.0
- τ1 ([4]; in Biofinity contact lens): 3.98 ns
- τf ([4]; in Biofinity contact lens): 3.98 ns
- τα ([4]; in Biofinity contact lens): 3.98 ns
- f1 ([4]; in EtOH): 1.0
- α1 ([4]; in EtOH): 1.0
- τ1 ([4]; in EtOH): 3.28 ns
- τf ([4]; in EtOH): 3.28 ns
- τα ([4]; in EtOH): 3.28 ns
- f1 ([4]; in MyDay contact lens, 2 hr): 0.82
- f2 ([4]; in MyDay contact lens, 2 hr): 0.18
- α1 ([4]; in MyDay contact lens, 2 hr): 0.94
- α2 ([4]; in MyDay contact lens, 2 hr): 0.07
- τ1 ([4]; in MyDay contact lens, 2 hr): 3.81 ns
- τ2 ([4]; in MyDay contact lens, 2 hr): 12.15 ns
- τf ([4]; in MyDay contact lens, 2 hr): 5.34 ns
- τα ([4]; in MyDay contact lens, 2 hr): 4.36 ns
- f1 ([4]; in MyDay contact lens, 1 day): 0.67
- f2 ([4]; in MyDay contact lens, 1 day): 0.33
- α1 ([4]; in MyDay contact lens, 1 day): 0.87
- α2 ([4]; in MyDay contact lens, 1 day): 0.13
- τ1 ([4]; in MyDay contact lens, 1 day): 4.48 ns
- τ2 ([4]; in MyDay contact lens, 1 day): 14.41 ns
- τf ([4]; in MyDay contact lens, 1 day): 7.76 ns
- τα ([4]; in MyDay contact lens, 1 day): 5.80 ns
- f1 ([4]; in Water): 0.494
- f2 ([4]; in Water): 0.51
- α1 ([4]; in Water): 0.740
- α2 ([4]; in Water): 0.260
- τ1 ([4]; in Water): 0.69 ns
- τ2 ([4]; in Water): 2.02 ns
- τf ([4]; in Water): 1.36 ns
- τα ([4]; in Water): 1.04 ns

SMILES: COc1cc2cc(-c3ccc(C(=O)O)cc3C(=O)O)oc2cc1N1CCOCCOCCN(c2cc3oc(-c4ccc(C(=O)O)cc4C(=O)O)cc3cc2OC)CCOCCOCC1 [PBF ?]
- Lifetime (ns), cation-bound form [5, 8]: 0.72 ns
- Q, cation-bound form [5, 8]: 0.72
- Lifetime (ns), free form ([5]; free form): 0.47 ns
- Q, free form ([5]; free form): 0.24

SMILES: O=S(=O)(O)c1cccc2cccc(Nc3ccccc3)c12 [1,8-ANS, 1-anilino-8-naphthalene sulfonic acid]
- f1 ([6]; 1-hexanol): 0.01
- f2 ([6]; 1-hexanol): 0.99
- α1 ([6]; 1-hexanol): 0.08
- α2 ([6]; 1-hexanol): 0.92
- τ1 ([6]; 1-hexanol): 1.77 ns
- τ2 ([6]; 1-hexanol): 12.02 ns
- τf ([6]; 1-hexanol): 11.88 ns
- τα ([6]; 1-hexanol): 11.18 ns
- f1 ([6]; 25/75 MeOH/H2O): 0.98
- f2 ([6]; 25/75 MeOH/H2O): 0.02
- α1 ([6]; 25/75 MeOH/H2O): 0.996
- α2 ([6]; 25/75 MeOH/H2O): 0.004
- τ1 ([6]; 25/75 MeOH/H2O): 0.52 ns
- τ2 ([6]; 25/75 MeOH/H2O): 2.36 ns
- τf ([6]; 25/75 MeOH/H2O): 0.54 ns
- τα ([6]; 25/75 MeOH/H2O): 0.52 ns
- f1 ([6]; 50/50 MeOH/H2O): 0.85
- f2 ([6]; 50/50 MeOH/H2O): 0.15
- α1 ([6]; 50/50 MeOH/H2O): 0.925
- α2 ([6]; 50/50 MeOH/H2O): 0.075
- τ1 ([6]; 50/50 MeOH/H2O): 1.09 ns
- τ2 ([6]; 50/50 MeOH/H2O): 2.33 ns
- τf ([6]; 50/50 MeOH/H2O): 1.27 ns
- τα ([6]; 50/50 MeOH/H2O): 1.19 ns
- f1 ([6]; Acetonitrile): 1.0
- α1 ([6]; Acetonitrile): 1.0
- τ1 ([6]; Acetonitrile): 7.04 ns
- τf ([6]; Acetonitrile): 7.04 ns
- τα ([6]; Acetonitrile): 7.04 ns
- f1 ([6]; Biofinity ™ lens): 0.05
- f2 ([6]; Biofinity ™ lens): 0.95
- α1 ([6]; Biofinity ™ lens): 0.36
- α2 ([6]; Biofinity ™ lens): 0.64
- τ1 ([6]; Biofinity ™ lens): 0.40 ns
- τ2 ([6]; Biofinity ™ lens): 11.00 ns
- τf ([6]; Biofinity ™ lens): 11.91 ns
- τα ([6]; Biofinity ™ lens): 8.76 ns
- f1 ([6]; EtOH): 0.02
- f2 ([6]; EtOH): 0.98
- α1 ([6]; EtOH): 0.05
- α2 ([6]; EtOH): 0.95
- τ1 ([6]; EtOH): 3.13 ns
- τ2 ([6]; EtOH): 8.83 ns
- τf ([6]; EtOH): 8.74 ns
- τα ([6]; EtOH): 8.57 ns
- f1 ([6]; MyDay ™ lens): 0.20
- f2 ([6]; MyDay ™ lens): 0.80
- α1 ([6]; MyDay ™ lens): 0.421
- α2 ([6]; MyDay ™ lens): 0.578
- τ1 ([6]; MyDay ™ lens): 4.01 ns
- τ2 ([6]; MyDay ™ lens): 12.79 ns
- τf ([6]; MyDay ™ lens): 11.97 ns
- τα ([6]; MyDay ™ lens): 9.70 ns

SMILES: Cc1ccc(N(CC(=O)O)CC(=O)O)c(OCCOc2cc3cc(-c4ncc(C(=O)O)o4)oc3cc2N(CC(=O)O)CC(=O)O)c1 [F ? -2]
- Lifetime (ns), Ca bound form [2]: 1.68 ns
- Q, Ca bound form [2]: 0.49
- Lifetime (ns), Ca free form [2]: 1.09 ns
- Q, Ca free form [2]: 0.23

SMILES: O=c1ccc2nc3ccc(O)cc3oc-2c1 [Resorufin]
- Lifetime (ns) τA ([3]; A form (value in parentheses)): 0.45 ns
- Lifetime (ns) τB ([3]; B form): 2.92 ns
- pKA [3]: ~5.7

SMILES: CCN(CC)Cc1ccnc(-c2cc(CN(CC)CC)ccn2)c1.[Ru+2].c1ccc(-c2ccccn2)nc1.c1ccc(-c2ccccn2)nc1 [[Ru(deabpy)(bpy)2]^2+]
- Lifetime (ns) τA ([3]; A form (value in parentheses)): 235 ns
- Lifetime (ns) τB ([3]; B form): 380 ns
- pKA [3]: 7.5

SMILES: O=C(O)c1ccccc1-c1c2cc(F)c(=O)cc-2oc2cc(O)c(F)cc12 [Oregon-Green]
- Lifetime (ns) τA ([3]; A form (value in parentheses)): 2.47 ns
- QA ([3]; A form (value in parentheses)): 0.22
- Lifetime (ns) τB ([3]; B form): 4.37 ns
- QB ([3]; B form): 0.65
- pKA [3]: 1.8

SMILES: CC=C[n+]1cccc2cc(OC)ccc21.[Br-] [SPQ-C3, 1-propenyl-6-methoxyquinolinium bromide]
- bimolecular quenching constant ([7]; in Water): 5.4e+09 M⁻¹ s⁻¹
- Stern-Volmer constant K ([7]; in solution): 140 M⁻¹
- unquenched lifetime (τ0) ([7]; in solution): 26 ns
- bimolecular quenching constant kq ([7]; in solution, listed as P-MQB): 5.4e+09 M⁻¹ s⁻¹
